Values quoted from earlier work as cited in patent US20260001962A1, “COMBINATION THERAPY METHODS WITH T-CELL ENGAGING MOLECULES FOR TREATMENT OF PROSTATE CANCER” (AMGEN INC., priority 2022, published 2026).
Entries after “also recorded” stand apart in the source; their conditions may differ.

How the values were obtained:
[1] = system: mCRPC patients
[2] = system: prostate cancer cells; conditions: reported in literature
[3] = system: prostate cancer cells; conditions: in vitro; Deegen et al. 2021

For `CO[C@H]1C(=O)[C@]2(C)[C@@H](OC)C[C@H]3OC[C@@]3(OC(C)=O)[C@H]2[C@H](OC(=O)c2ccccc2)[C@]2(O)C[C@H](OC(=O)[C@H](O)[C@@H](NC(=O)OC(C)(C)C)c3ccccc3)C(C)=C1C2(C)C` [Cabazitaxel], the “increase in median survival compared with mitoxantrone” value ([1]; mCRPC) is given as 2.4 months.
For `[223Ra]` [Radium-223], the survival ([1]; patients with bone metastases, combined with best standard care, vs 11.3) is listed as 14.9 months.
For `CNC(=O)c1ccc(N2C(=S)N(c3ccc(C#N)c(C(F)(F)F)c3)C(=O)C2(C)C)cc1F` [enzalutamide], the OS ([1]; first line mCRPC setting, vs 31.3) is given as 35.3 months, the “expression of PSMA on prostate cancer cells” value [2] is given as “rapidly upregulate expression of PSMA” and the “cytotoxicity of prostate cancer cells induced by PSMA-targeted T-cell engager (AMG 160)” value [3] is given as “enhances cytotoxicity of prostate cancer cells; also recorded: enhance AMG 160-mediated cytotoxicity of prostate cancer cells”.
